The values below come from ChEMBL document CHEMBL1150338, “Prediction and identification of drug interactions with the human ATP-binding cassette transporter multidrug-resistance associated protein 2 (MRP2; ABCC2)” (J Med Chem, 2008).

For the data set, the target named is MRP2 (ABCC2) (Homo sapiens, UniProt Q92887). Nature of the data set: in vitro.
Setting [1] is: probe estradiol-17-beta-glucuronide.
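Note: Inside-out membrane vesicles from Sf9 insect cells expressing human MRP2, measuring uptake of the estradiol glucuronide substrate, expressed as percent of untreated control.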

MRP2 (ABCC2), sequence (Q92887 whole entry): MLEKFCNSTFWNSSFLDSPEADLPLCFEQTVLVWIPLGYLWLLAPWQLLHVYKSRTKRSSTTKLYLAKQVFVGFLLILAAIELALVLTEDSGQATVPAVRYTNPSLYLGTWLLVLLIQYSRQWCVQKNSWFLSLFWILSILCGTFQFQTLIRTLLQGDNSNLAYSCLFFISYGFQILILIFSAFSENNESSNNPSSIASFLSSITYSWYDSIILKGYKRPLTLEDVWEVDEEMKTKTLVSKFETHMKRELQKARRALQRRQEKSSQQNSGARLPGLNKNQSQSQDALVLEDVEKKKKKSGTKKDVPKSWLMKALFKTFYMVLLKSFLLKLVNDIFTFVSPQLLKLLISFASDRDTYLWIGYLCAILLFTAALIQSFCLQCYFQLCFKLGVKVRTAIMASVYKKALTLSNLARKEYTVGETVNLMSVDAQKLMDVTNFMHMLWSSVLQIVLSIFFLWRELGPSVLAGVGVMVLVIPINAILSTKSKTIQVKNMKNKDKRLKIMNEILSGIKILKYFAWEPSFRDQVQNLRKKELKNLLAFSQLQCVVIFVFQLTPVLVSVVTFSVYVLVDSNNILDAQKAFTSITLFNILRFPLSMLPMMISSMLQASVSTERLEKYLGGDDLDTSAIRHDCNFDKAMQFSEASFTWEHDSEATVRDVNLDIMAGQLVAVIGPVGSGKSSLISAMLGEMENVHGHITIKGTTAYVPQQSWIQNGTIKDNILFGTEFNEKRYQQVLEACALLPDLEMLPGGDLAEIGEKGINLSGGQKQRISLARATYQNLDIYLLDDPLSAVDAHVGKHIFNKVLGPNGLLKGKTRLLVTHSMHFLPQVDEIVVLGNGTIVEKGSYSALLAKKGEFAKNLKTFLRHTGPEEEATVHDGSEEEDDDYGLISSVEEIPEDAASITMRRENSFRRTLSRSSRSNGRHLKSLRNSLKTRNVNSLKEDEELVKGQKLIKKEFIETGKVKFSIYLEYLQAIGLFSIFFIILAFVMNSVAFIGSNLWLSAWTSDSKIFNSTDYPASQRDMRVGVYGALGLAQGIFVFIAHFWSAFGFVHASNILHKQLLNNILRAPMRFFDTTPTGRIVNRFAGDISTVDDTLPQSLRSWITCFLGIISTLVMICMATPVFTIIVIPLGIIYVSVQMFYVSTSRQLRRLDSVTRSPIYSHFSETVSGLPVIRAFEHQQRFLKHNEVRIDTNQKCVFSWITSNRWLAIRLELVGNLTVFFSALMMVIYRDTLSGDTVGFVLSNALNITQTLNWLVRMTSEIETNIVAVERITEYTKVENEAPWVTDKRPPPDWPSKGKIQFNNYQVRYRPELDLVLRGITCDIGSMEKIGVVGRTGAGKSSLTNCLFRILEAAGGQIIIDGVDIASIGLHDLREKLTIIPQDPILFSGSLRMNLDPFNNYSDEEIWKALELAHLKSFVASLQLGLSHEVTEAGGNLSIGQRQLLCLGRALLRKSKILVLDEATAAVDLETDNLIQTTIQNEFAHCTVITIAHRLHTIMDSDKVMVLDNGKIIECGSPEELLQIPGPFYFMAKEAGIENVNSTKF
Description: Effect on human MRP2-mediated estradiol-17-beta-glucuronide transport in Sf9 cells inverted membrane vesicles relative to control

In the case of `C[C@H](CCC(=O)O)[C@H]1CC[C@H]2[C@@H]3[C@H](O)C[C@@H]4C[C@H](O)CC[C@]4(C)[C@H]3C[C@H](O)[C@]12C` [CHOLIC ACID], the activity under setting [1] was 112%.

For the compound `COCCc1ccc(OCC(O)CNC(C)C)cc1` (stereo not given) [METOPROLOL], the activity under setting [1] is 72%.

`CCC1(c2ccccc2)C(=O)NC(=O)NC1=O` [PHENOBARBITAL]: under setting [1], the activity turned out to be 98%.

For the compound `CNCCCC12CCC(c3ccccc31)c1ccccc12` [MAPROTILINE], the activity (sf9) came out at 56%.

As to `O=C1C[C@@H](c2ccc(O)cc2)Oc2cc(O)cc(O)c21` [NARINGENIN], the activity under setting [1] was 207%.

Regarding `Cc1c(OCC(F)(F)F)ccnc1C[S+]([O-])c1nc2ccccc2[nH]1` (stereo not given) [LANSOPRAZOLE], under setting [1], the activity is 34%.

Regarding `Nc1ccc(O)c(C(=O)O)c1` [MESALAMINE], the activity under setting [1] is 109%.

Consider `CC(=O)[C@@]1(O)CC[C@H]2[C@@H]3C[C@H](C)C4=CC(=O)CC[C@]4(C)[C@H]3CC[C@@]21C`, for which the activity under setting [1] came to 111%.

As to `CC(=O)Nc1ccc(S(=O)(=O)Nc2ccc([N+](=O)[O-])cc2)cc1`, under setting [1], the activity turned out to be 116%.

In the case of `CN(C)CC/C=C1/c2ccccc2Sc2ccc(Cl)cc21` [CHLORPROTHIXENE], under setting [1], the activity stood at 25%.

Consider `C[C@]12CC[C@H]3[C@@H](CCC4=CC(=O)CC[C@@]43C)[C@@H]1CC[C@@H]2O` [TESTOSTERONE], for which, under setting [1], the activity was 140%.

For the compound `CC(C(=O)O)c1ccc(-c2ccccc2)c(F)c1` (stereo not given) [FLURBIPROFEN], under setting [1], the activity came to 108%.

Consider `CN(C)C(=O)C(CCN1CCC(O)(c2ccc(Cl)cc2)CC1)(c1ccccc1)c1ccccc1` [LOPERAMIDE], for which the activity under setting [1] came to 46%.

As for `[H]/N=C(/N)N/C(=N/[H])NCCc1ccccc1` [PHENFORMIN], the activity under setting [1] came to 88%.

Consider `CC(C)(C)c1ccc(C(O)CCCN2CCC(C(O)(c3ccccc3)c3ccccc3)CC2)cc1` (stereo not given) [TERFENADINE], for which the activity (sf9) is 3%.

In the case of `CC(=O)S[C@@H]1CC2=CC(=O)CC[C@]2(C)[C@H]2CC[C@@]3(C)[C@@H](CC[C@@]34CCC(=O)O4)[C@H]12` [SPIRONOLACTONE], the activity under setting [1] stood at 125%.

Consider `Cc1ccnc2c1NC(=O)c1cccnc1N2C1CC1` [NEVIRAPINE], for which the activity under setting [1] stood at 121%.

With `O=C(O)c1cc(/N=N/c2ccc(S(=O)(=O)Nc3ccccn3)cc2)ccc1O` [SULFASALAZINE], the activity under setting [1] was determined as 77%.

For the compound `COc1cc([C@@H]2c3cc4c(cc3[C@@H](O[C@@H]3O[C@@H]5CO[C@@H](C)O[C@H]5[C@H](O)[C@H]3O)[C@H]3COC(=O)[C@H]23)OCO4)cc(OC)c1O` [ETOPOSIDE], the activity under setting [1] is 110%.

Consider `Cc1ccc(S(=O)(=O)NC(=O)NN2CC3CCCC3C2)cc1` (stereo not given) [GLICLAZIDE], for which the activity under setting [1] was 174%.

In the case of `COc1cccc2c1C(=O)c1c(O)c3c(c(O)c1C2=O)C[C@@](O)(C(=O)CO)C[C@@H]3O[C@H]1C[C@H](N)[C@H](O)[C@H](C)O1` [DOXORUBICIN], where the note is “sf9”, the activity came out at 87%.

`CC#C[C@]1(O)CC[C@H]2[C@@H]3CCC4=CC(=O)CCC4=C3[C@@H](c3ccc(N(C)C)cc3)C[C@@]21C` [MIFEPRISTONE]: the activity under setting [1] was 134%.

Regarding `O=C1OC2(c3ccc(O)cc3Oc3cc(O)ccc32)c2ccccc21` [FLUORESCEIN], under setting [1], the activity turned out to be 82%.

For the compound `O=C1OC(c2ccc(O)c(S(=O)(=O)O)c2)(c2ccc(O)c(S(=O)(=O)O)c2)c2c(Br)c(Br)c(Br)c(Br)c21` [SULFOBROMOPHTHALEIN SODIUM], the activity under setting [1] was found to be 5%.

Consider `COc1cc2nc(N3CCN(C(=O)c4ccco4)CC3)nc(N)c2cc1OC` [PRAZOSIN], for which the activity under setting [1] came out at 78%.

`Cc1cn([C@H]2C[C@H](N=[N+]=[N-])[C@@H](CO)O2)c(=O)[nH]c1=O` [ZIDOVUDINE]: the activity under setting [1] was 103%.

`CCOC(=O)C1=C(C)NC(C)=C(C(=O)OC)C1c1cccc(Cl)c1Cl` (stereo not given) [FELODIPINE]: the activity under setting [1] came out at 86%.

`CC(C)[C@@]1(NC(=O)[C@@H]2C=C3c4cccc5[nH]cc(c45)C[C@H]3N(C)C2)O[C@@]2(O)[C@@H]3CCCN3C(=O)[C@H](Cc3ccccc3)N2C1=O` [ERGOCRISTINE]: the activity under setting [1] was 60%.

As for `CC(C)NCC(O)c1ccc(NS(C)(=O)=O)cc1` (stereo not given) [SOTALOL], the activity (sf9) was determined as 96%.

Turning to `CCc1c2c(nc3ccc(OC(=O)N4CCC(N5CCCCC5)CC4)cc13)-c1cc3c(c(=O)n1C2)COC(=O)[C@]3(O)CC` [IRINOTECAN], the activity under setting [1] was found to be 101%.

For `CNC(=C[N+](=O)[O-])NCCSCc1ccc(CN(C)C)o1` [RANITIDINE], the activity under setting [1] amounted to 52%.

As for `CC(C)OC(=O)C(C)(C)Oc1ccc(C(=O)c2ccc(Cl)cc2)cc1` [FENOFIBRATE], the activity under setting [1] worked out at 46%.

In the case of `CCCC(CCC)C(=O)O` [VALPROIC ACID], under setting [1], the activity was determined as 94%.

As for `Cc1cccc(C)c1OCC(=O)N[C@@H](Cc1ccccc1)[C@@H](O)C[C@H](Cc1ccccc1)NC(=O)[C@H](C(C)C)N1CCCNC1=O` [LOPINAVIR], the activity (sf9) worked out at 33%.

Regarding `CC(NC(C)(C)C)C(=O)c1cccc(Cl)c1` (stereo not given) [BUPROPION], under setting [1], the activity is 106%.

As for `CC1(C)C(/C=C/C=C/C=C/C=C2\N(CCCCS(=O)(=O)O)c3ccc4ccccc4c3C2(C)C)=[N+](CCCCS(=O)(=O)[O-])c2ccc3ccccc3c21` [INDOCYANINE GREEN], the activity under setting [1] was determined as 5%.

`CC1=C(CC(=O)O)c2cc(F)ccc2/C1=C\c1ccc([S+](C)[O-])cc1` (stereo not given): the activity under setting [1] is 151%.

For `O=c1cc(-c2ccc(O)cc2)oc2cc(O)cc(O)c12` [APIGENIN], the activity under setting [1] came out at 94%.

Turning to `CC(C)(C)NC[C@H](O)COc1nsnc1N1CCOCC1` [TIMOLOL], where the note is “sf9”, the activity came out at 91%.

Turning to `Nc1nc2c(c(=O)[nH]1)N(C=O)C(CNc1ccc(C(=O)N[C@@H](CCC(=O)O)C(=O)O)cc1)CN2` (stereo not given in full) [LEUCOVORIN], the activity under setting [1] amounted to 103%.

With `CCC[C@@]1(CCc2ccccc2)CC(O)=C([C@H](CC)c2cccc(NS(=O)(=O)c3ccc(C(F)(F)F)cn3)c2)C(=O)O1`, the activity under setting [1] amounted to 88%.

Regarding `CC(C)(C)NC(=O)[C@@H]1CN(Cc2cccnc2)CCN1C[C@@H](O)CC(Cc1ccccc1)C(=O)N[C@H]1c2ccccc2C[C@H]1O` (single isomer, unassigned), the activity under setting [1] turned out to be 93%.

On to `Cn1nnnc1SCC1=C(C(=O)O)N2C(=O)[C@@H](NC(=O)[C@H](O)c3ccccc3)[C@H]2SC1` [CEFAMANDOLE], for which, under setting [1], the activity worked out at 63%.

Regarding `COc1cccc([C@@]2(O)CCCC[C@@H]2CN(C)C)c1` [TRAMADOL], the activity under setting [1] amounted to 89%.

As for `COc1ccc(CCN2CCC(Nc3nc4ccccc4n3Cc3ccc(F)cc3)CC2)cc1` [ASTEMIZOLE], under setting [1], the activity amounted to 36%.

Take `NCCCC[C@H](N[C@@H](CCc1ccccc1)C(=O)O)C(=O)N1CCC[C@H]1C(=O)O` [LISINOPRIL ANHYDROUS]: the activity under setting [1] was determined as 43%.

For the compound `C[C@]12CC[C@@H]3c4ccc(O)cc4CC[C@H]3[C@@H]1CC[C@@H]2O` [ESTRADIOL], the activity under setting [1] turned out to be 123%.

For `CC/C(=C(/CC)c1ccc(O)cc1)c1ccc(O)cc1` [DIETHYLSTILBESTROL], the activity under setting [1] amounted to 11%.

As for `C#Cc1cccc(Nc2ncnc3cc(OCCOC)c(OCCOC)cc23)c1` [ERLOTINIB], the activity under setting [1] came to 47%.

With `COc1ccc2c(c1OC)C(=O)O[C@@H]2[C@H]1c2c(cc3c(c2OC)OCO3)CCN1C` [NOSCAPINE], the activity under setting [1] worked out at 78%.

Consider `C[C@]12CC[C@@H]3c4ccc(OS(=O)(=O)O)cc4CC[C@H]3[C@@H]1CCC2=O` [ESTRONE SULFURIC ACID], for which the activity under setting [1] was 300%.

In the case of `C[N+](C)(C)C[C@H](O)CC(=O)[O-]` [CARNITINE], under setting [1], the activity was 84%.

For the compound `CO[C@H]1/C=C/O[C@@]2(C)Oc3c(C)c(O)c4c(O)c(c(/C=N/N5CCN(C)CC5)c(O)c4c3C2=O)NC(=O)/C(C)=C\C=C\[C@H](C)[C@H](O)[C@@H](C)[C@@H](O)[C@@H](C)[C@H](OC(C)=O)[C@@H]1C` [RIFAMPIN], under setting [1], the activity was determined as 18%.

For the compound `O=C1NC(=O)C(c2ccccc2)(c2ccccc2)N1` [PHENYTOIN], the activity under setting [1] came to 125%.

As to `CCN(CC)Cc1cc(Nc2ccnc3cc(Cl)ccc23)ccc1O`, the activity under setting [1] turned out to be 60%.

With `COc1ccc2c(c1)c(CC(=O)O)c(C)n2C(=O)c1ccc(Cl)cc1` [INDOMETHACIN], the activity under setting [1] was 308%.

Consider `Cc1onc(-c2c(F)cccc2Cl)c1C(=O)N[C@@H]1C(=O)N2[C@@H]1SC(C)(C)[C@@H]2C(=O)O` [FLOXACILLIN], for which, under setting [1], the activity is 73%.

For the compound `CN1[C@@H]2CC[C@H]1C[C@@H](OC(=O)C(CO)c1ccccc1)C2` (stereo not given in full) [ATROPINE], the activity under setting [1] worked out at 59%.

For `CC1(C)[C@@H](O[C@H]2O[C@H](C(=O)O)[C@@H](O)[C@H](O)[C@H]2O[C@@H]2O[C@H](C(=O)O)[C@@H](O)[C@H](O)[C@H]2O)CC[C@]2(C)[C@H]3C(=O)C=C4[C@@H]5C[C@@](C)(C(=O)O)CC[C@]5(C)CC[C@@]4(C)[C@]3(C)CC[C@@H]12` [GLYCYRRHIZIN], under setting [1], the activity worked out at 5%.

Regarding `O=c1c(O)c(-c2ccc(O)c(O)c2)oc2cc(O)cc(O)c12` [QUERCETIN], under setting [1], the activity came out at 40%.

As for `CN1CCC[C@H]1c1cccnc1` [NICOTINE], where the note is “sf9”, the activity was determined as 101%.

For the compound `CCOC(=O)N1CCC(=C2c3ccc(Cl)cc3CCc3cccnc32)CC1` [LORATADINE], the activity under setting [1] was 6%.

Regarding `S=C=NCCc1ccccc1` [PHENETHYLISOTHIOCYANATE], under setting [1], the activity is 94%.

`CC(C)[C@@H]1NC(=O)[C@H](CCCCN)NC(=O)[C@@H](Cc2c[nH]c3ccccc23)NC(=O)[C@H](Cc2ccc(O)cc2)NC(=O)[C@H](C)N(C)C(=O)[C@H](Cc2ccccc2)NC1=O` [SEGLITIDE]: the activity under setting [1] stood at 94%.

With `Clc1ccccc1C(c1ccccc1)(c1ccccc1)n1ccnc1` [CLOTRIMAZOLE], the activity under setting [1] was found to be 14%.

As to `CC(=O)O[C@H]1C[C@@]2(C)[C@@H](C[C@@H](O)[C@H]3[C@@]4(C)CC[C@@H](O)[C@@H](C)[C@@H]4CC[C@@]32C)/C1=C(\CCC=C(C)C)C(=O)O` [FUSIDIC ACID], the activity under setting [1] is 72%.

Regarding `NS(=O)(=O)c1cc2c(cc1Cl)NCNS2(=O)=O` [HYDROCHLOROTHIAZIDE], under setting [1], the activity stood at 94%.

Consider `CN(C)CCCN1c2ccccc2Sc2ccc(Cl)cc21` [CHLORPROMAZINE], for which the activity (sf9) came out at 58%.

As to `CC(C)Cc1ccc(C(C)C(=O)O)cc1` (stereo not given) [IBUPROFEN], the activity under setting [1] amounted to 130%.

Turning to `Cc1ccc(N(CC(=O)O)CC(=O)O)c(OCCOc2cc(-c3c4cc(Cl)c(=O)cc-4oc4cc(O)c(Cl)cc34)ccc2N(CC(=O)O)CC(=O)O)c1`, the activity under setting [1] was 9%.
